The source of these data is patent US12440478B2, “Process for preparing a potent thiazole compound, pharmaceutical formulation and uses thereof” (AHAMMUNE BIOSCIENCES PRIVATE LIMITED, priority 2018, dated 2025).

One data set has as its system black guinea pigs. Put plainly: Animal model of vitiligo, topical application to ears (Test 6). The format is in vivo, guinea pig. To be noted: 1% w/w topical formulation, 4 weeks, versus placebo treated ear; FIG. 6. The procedure: Topical formulation (1% w/w N-[2-[2-(4-chlorophenyl)-4-thiazolyl]ethyl]-butanamide) was prepared. Similarly, a placebo formulation was also prepared which was exactly similar to the N-[2-[2-(4-chlorophenyl)-4-thiazolyl]ethyl]-butanamide formulation except the active compound. The animal model of vitiligo was developed in black guinea pigs and the placebo and N-[2-[2-(4-chlorophenyl)-4-thiazolyl]ethyl]-butanamide formulations were applied on to the left and right ears respectively.

Data set [1] has as its system B16-F10 cells. Description: Tyrosinase activity with cocktail of inflammatory cytokines (Test 4). The format is cell-based. The following applies: pre-treated 6 h, TNFα, IL1β, IFNγ 10 ng/ml each, 72 h; FIG. 4. The method, then: In FIG. 4—Cocktail of inflammatory cytokines—Inflammatory cytokines cause inflammation in the system and are implicated for the vitiligo pathology. The “cocktail of inflammatory cytokines” include tumour necrosis factor-alpha (TNFα), interleukin-1 beta (IL-1B) and interferon gamma (IFNγ) at a final concentration of 10 ng/ml each.
B16-F10 cells were seeded in 24-well plates (80000 cells per well) for 24 h. Cells were then treated with indicated concentrations of N-[2-[2-(4-chlorophenyl)-4-thiazolyl]ethyl]-butanamide. After 6 h of treatment with N-[2-[2-(4-chlorophenyl)-4-thiazolyl]ethyl]-butanamide, a cocktail of inflammatory cytokines (TNFα, IL1β, IFNγ—10 ng/ml each) was added to indicated wells. After 72 h of treatments, cells were washed with PBS and lysed in phosphate buffer (pH 6.8) containing 1 mM EDTA and 01% Triton X-100. Lysate was cleared by centrifugation (12000×g) for 10 min and clear lysate (20 μl) was used for tyrosinase assay. The final concentrations of tyrosinase assay mixture were as follows: phosphate buffer (50 mM, pH 6.8), L-DOPA (1 mM), MBTH (6 mM), DMF (2%). Tyrosinase activity led to the conversion of L-DOPA into dopachrome that binds to MBTH and forms a color complex which is read at 492 nm. Tyrosinase activity was normalized to total cellular proteins measured by Bradford's reagent and represented as % of vehicle control.

A further data set deals with obese-diabetic mouse. To be noted: multiple obese-diabetic mouse models; cited from earlier work.
A further data set deals with B16-F10 melanocytes. Description: MTT cell viability after tunicamycin-induced ER stress (Test 1). The format is cell-based. To be noted: pre-treated 6 h, then 300 ng/ml tunicamycin, 72 h; FIG. 1. The method, then: B16-F10 melanocytes were seeded (5000 cells per well) in 96-well plates for 24 h. Cells were then treated in quadruplicate with indicated concentration of N-[2-[2-(4-chlorophenyl)-4-thiazolyl]ethyl]-butanamide for 6 h. All the compounds dilutions were made in DMSO and the concentration of the vehicle (DMSO) was kept constant (0.1%) in each well. Cells were then treated with 300 ng/ml tunicamycin to cause ER stress and after 72 h of treatment, cells were observed under microscope and images were captured. Then MTT assay was performed to measure the cell viability. Briefly, MTT (0.5 mg/ml) was added to each well and further incubated for 1 h. Culture medium was removed and the reduced MTT (formazen) was dissolved in DMSO (100 μl per well) and measured at 570 nm. Cell growth in vehicle control was calculated as 100% and the effect of the compounds were calculated accordingly.

Data set [2] relates to B16-F10 cells. Description: Tyrosinase activity with tunicamycin treatment (Test 2). The format is cell-based. The following applies: pre-treated 6 h, tunicamycin 300 ng/ml, 72 h; % of vehicle control; FIG. 2. The procedure:
B16-F10 cells were seeded in 24-well plates (20000 cells per well) for 24 h. Cells were then treated with indicated concentrations of N-[2-[2-(4-chlorophenyl)-4-thiazolyl]ethyl]-butanamide. After 6 h of treatment with N-[2-[2-(4-chlorophenyl)-4-thiazolyl]ethyl]-butanamide, tunicamycin (300 ng/ml) was added to the indicated wells. After 72 h of treatments, cells were washed with PBS and lysed in phosphate buffer (pH 6.8) containing 1 mM EDTA and 01% Triton X-100. Lysate was cleared by centrifugation (12000×g) for 10 min and clear lysate (20 μl) was used for tyrosinase assay. The final concentrations of tyrosinase assay mixture were as follows: phosphate buffer (50 mM, pH 6.8), L-DOPA (1 mM), MBTH (6 mM), DMF (2%). Tyrosinase activity was measured by measuring the colored complex formed at 492 nm. Tyrosinase activity was normalized to total cellular proteins measured by Bradford's reagent and represented as % of vehicle control.

For the next data set, the system named is melanocytes. Put plainly: Secreted melanin in cell culture supernatant (Test 3). It is filed as cell-based. To be noted: 72 h, with tunicamycin; % of control; FIG. 3. The method, then:
Cells were treated as indicated for 72 h. After incubation, cell culture supernatant was used for the estimation of secreted melanin. Secreted melanin was measured at 405 nm against cell culture medium as blank. Melanin levels were normalized to the total cellular proteins and represented as % of control.

The subject of data set [3] is NHEM, A375 melanoma, B16-F10 melanoma and NIH-3T3 fibroblasts. Put plainly: Cytotoxicity as LDH release (Test 5). It is filed as cell-based. To be noted: 24 hours treatment; FIG. 5. The procedure:
NHEM (normal human […] melanocytes), A375 melanoma, B16-F10 melanoma and NIH-3T3 fibroblasts were seeded in 96 well plates for 24 hours. Cells were then treated with VC (DMSO, 0.1%) or with indicated concentrations of N-[2-[2-(4-chlorophenyl)-4-thiazolyl]ethyl]-butanamide for 24 hours. After incubation period, cytotoxicity was measured as % of total LDH released in the culture medium.
In general terms: Release of lactate dehydrogenase indicates damage to the cell membrane.

In data set [4] the test system is ER (endoplasmic reticulum). To be noted: cited from earlier work.
Data set [5] has as its system cells that expressed a mutant form of rhodopsin. The following applies: mutant rhodopsin of autosomal dominant retinitis pigmentosa; protein misfolding and ER stress; cited from earlier work.

As to `CCCC(=O)NCCc1csc(-c2ccc(Cl)cc2)n1` [N-[2-[2-(4-chlorophenyl)-4-thiazolyl]ethyl]-butanamide], in the data set with black guinea pigs, the ear pigmentation entry is reported as “potency to cause repigmentation”. In the data set with B16-F10 cells [1], the “tyrosinase activity under inflammation” value is reported as “negates inflammation induced effect in melanocytes”. Further, in the data set with obese-diabetic mouse, the B-cell function entry is reported as “improved”, the glucose tolerance entry is reported as “improved” and the insulin sensitivity result is “improved”. Also, the “cell viability (MTT)” value with B16-F10 melanocytes was “protects melanocytes from tunicamycin induced cell death in a dose dependent manner”. In addition, the tyrosinase activity entry in the data set on B16-F10 cells [2] is “increases tyrosinase activity and reverses the tunicamycin effect”. Moreover, in the data set with melanocytes, the “melanin secretion (melanin levels)” value was “increases melanin levels and reverses the tunicamycin effect”. In addition, the “cytotoxicity (% of total LDH released)” value in data set [3] is recorded as “no cytotoxicity”. Also, in data set [4], the “ER protein folding output” value was “increasing ER protein folding output” and the chaperone expression entry is “chronically inducing chaperone expression”. Also, the “prevention of cell death” value in data set [5] is “effective in preventing the death of cells”.
